# Assay results taken from the supplement of paper PMC11208160.
# Assay: recombinant UMI read abundance after kanamycin selection (control-corrected) (log10(CPM+1)); higher = more efficient recombination; extreme values may be limits of the assay; sequences stand for … in AGTGCAGAGAAAATCGGCCAGTTTTCTCTGCCTGCAGTCCGCATGCCGTGGGACCCCTTGGGTTCTAACCTGTTGCCTAGATTTATGCAGCGGACTGCCTTTCTCCCAAAGTGATAAACCGG…AGGTTGGTTTCACT; site = the 11-nt donor
# Method: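 Pooled E. coli donor-specificity screen for the IS621 bridge recombinase. Each library member carries a reprogrammed 11-nt donor and a full-length LE bridge RNA expressed in cis from the natural promoter, with a paired donor-binding loop (8-nt LDG + 4-nt RDG) and a target-binding loop fixed to T5. It is co-electroporated with a T5 target plasmid; recombinase is induced with 0.07 mM IPTG and recombinants are selected on kanamycin. UMIs are counted as CPM, averaged over two biological replicates and corrected by the unselected control. Molecule = full bridge RNA written as DNA, built from the T5 scaffold: LDG = donor specificity nt 1-8, RDG = reverse complement of nt 8-11.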
# 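Note: IS621 bridge recombinase in Escherichia coli cells against a fixed T5 target plasmid.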
row,Sequence,recombinant UMI read abundance (log10)
1,CTCGGAGCATGGACCGGTTTTCCCGGTAATCCGTATTTGAC (site CTCGGAGCTGT),2.63
2,CCAGGCGCATGGACCGGTTTTCCCGGTAATCCGTATTTGAT (site CCAGGAGCTAT),1.06
3,GATTGGACATGGACCGGTTTTCCCGGTAATCCGTATTTGAC (site GATTGGACTGT),0.659
4,CCCATATCATGGACCGGTTTTCCCGGTAATCCGTATTTGTC (site CCCATATCTGC),0
5,AAGCCAGCATGGACCGGTTTTCCCGGTAATCCGTATTTGGG (site AAGCCAGCTCC),0.00996
6,GACGAAGCATGGACCGGTTTTCCCGGTAATCCGTATTTGCT (site GACGAAGCTAG),2.11
7,GCGGATGCATGGACCGGTTTTCCCGGTAATCCGTATTTGAA (site GCGGATGCTTT),2.38
8,TATTTGCCATGGACCGGTTTTCCCGGTAATCCGTATTTGTG (site TATTTGACTCA),0.0205
9,CCTTAAGCATGGACCGGTTTTCCCGGTAATCCGTATTTGAT (site CCTAAAGCTAT),0
10,AGGACATCATGGACCGGTTTTCCCGGTAATCCGTATTTGCT (site GGGACATCTAG),0.0498
11,GGTGTGGCATGGACCGGTTTTCCCGGTAATCCGTATTTGGT (site GGCGTGGCTAC),0.0168
12,GTGCAAGCATGGACCGGTTTTCCCGGTAATCCGTATTTGGT (site GTGCAGGCTAC),0.602
13,GCGTCGGCATGGACCGGTTTTCCCGGTAATCCGTATTTGGA (site GCGTCGGCTTC),0.519
14,CAATTCCCATGGACCGGTTTTCCCGGTAATCCGTATTTGGT (site CAATTCCCTAC),0.529
15,TGGGAGACATGGACCGGTTTTCCCGGTAATCCGTATTTGCA (site TGGGAGACTTG),1.7
16,TCTGCGGCATGGACCGGTTTTCCCGGTAATCCGTATTTGAT (site TCTGCGGCTAT),0.0332
17,CCCTTCTCATGGACCGGTTTTCCCGGTAATCCGTATTTGTG (site CCCTTCTCTCC),0.0231
18,AATGTAACATGGACCGGTTTTCCCGGTAATCCGTATTTGCT (site GATGTAACTAG),1.57
19,CGTCGTACATGGACCGGTTTTCCCGGTAATCCGTATTTGCT (site CGTCGTACTAG),1.76
20,GACTTGACATGGACCGGTTTTCCCGGTAATCCGTATTTGCT (site TACTTGACTAG),0.923
21,GTTGGAACATGGACCGGTTTTCCCGGTAATCCGTATTTGCC (site GTTGGAACTGG),2.34
22,CTGCTTCCATGGACCGGTTTTCCCGGTAATCCGTATTTGCT (site CTGCTCCCTAG),0.807
23,GCCGATTCATGGACCGGTTTTCCCGGTAATCCGTATTTGCT (site GCCGATTCTAG),1.88
24,CCCTTCTCATGGACCGGTTTTCCCGGTAATCCGTATTTGTG (site CCCTTCTCTCT),0.00643

row,Sequence,recombinant UMI read abundance (log10)
1,TGTACATCATGGACCGGTTTTCCCGGTAATCCGTATTTGAC (site TGTACATCTGT),0
2,TTGGTGGCATGGACCGGTTTTCCCGGTAATCCGTATTTGGC (site TTGGTGGCTGC),1.84
3,GATTATGCATGGACCGGTTTTCCCGGTAATCCGTATTTGCT (site GATTATACTAG),1.54
4,AATTCTGCATGGACCGGTTTTCCCGGTAATCCGTATTTGGA (site AATTTTGCTTC),0.00758
5,CGGACACCATGGACCGGTTTTCCCGGTAATCCGTATTTGCT (site CGGACACCTAG),0
6,CACTGGACATGGACCGGTTTTCCCGGTAATCCGTATTTGGT (site CACTGGACTAC),1.24
7,TCGTTTACATGGACCGGTTTTCCCGGTAATCCGTATTTGCT (site ACGTTTACTAG),0
8,CCCCACCCATGGACCGGTTTTCCCGGTAATCCGTATTTGTA (site CCCCACGCTTA),0.0484
9,AATCGAGCATGGACCGGTTTTCCCGGTAATCCGTATTTGGA (site AATCGAGCTTC),0.474
10,TTAGCTGCATGGACCGGTTTTCCCGGTAATCCGTATTTGTC (site TTAGCTGCTAA),0.00712
11,GTTGGTACATGGACCGGTTTTCCCGGTAATCCGTATTTGAC (site GTGGGTACTGT),0
12,CGAACTACATGGACCGGTTTTCCCGGTAATCCGTATTTGAG (site CGAACTACTCT),1.95
13,GCTGGTCCATGGACCGGTTTTCCCGGTAATCCGTATTTGTA (site GCTGGTCCTTA),0.297
14,GCGAAACCATGGACCGGTTTTCCCGGTAATCCGTATTTGCT (site GCGAAATCTAG),0
15,GCGGTGTCATGGACCGGTTTTCCCGGTAATCCGTATTTGAA (site GCGGTGTCTTT),2.41
16,AACAAACCATGGACCGGTTTTCCCGGTAATCCGTATTTGGT (site AACAAACCTAC),0
17,TGTAGCTCATGGACCGGTTTTCCCGGTAATCCGTATTTGAA (site TGTAGCTCTTT),0.301
18,CCCGTTCCATGGACCGGTTTTCCCGGTAATCCGTATTTGGC (site CCCGTTCCTGC),0
19,AAGCACGCATGGACCGGTTTTCCCGGTAATCCGTATTTGTG (site AAGCACGCTCT),0.906
20,CGGGATTCATGGACCGGTTTTCCCGGTAATCCGTATTTGCC (site CGGGACTCTGG),2.97
21,CTCTTCTCATGGACCGGTTTTCCCGGTAATCCGTATTTGTA (site CTCTTCTCTTA),2.1
22,ACGGTGCCATGGACCGGTTTTCCCGGTAATCCGTATTTGAA (site ACGGTGCCTTT),0.00366
23,CAAGCGCCATGGACCGGTTTTCCCGGTAATCCGTATTTGTC (site CAAGCGCCTTA),0.529
24,GGTCCATCATGGACCGGTTTTCCCGGTAATCCGTATTTGTA (site GGTCCACCTTA),0.0104

row,Sequence,recombinant UMI read abundance (log10)
1,TAAGCAGCATGGACCGGTTTTCCCGGTAATCCGTATTTGCT (site CAAGCAGCTAG),0.371
2,AATCTGTCATGGACCGGTTTTCCCGGTAATCCGTATTTGAC (site AATGTGTCTGT),0.00511
3,CAACTTTCATGGACCGGTTTTCCCGGTAATCCGTATTTGGT (site CAACTTTCTAC),0.82
4,CACGACCCATGGACCGGTTTTCCCGGTAATCCGTATTTGTT (site CACGACCCTAA),0.631
5,CTTATCTCATGGACCGGTTTTCCCGGTAATCCGTATTTGTA (site CTTCTCTCTTA),0.475
6,GATACCACATGGACCGGTTTTCCCGGTAATCCGTATTTGCC (site GATACCACTGG),1.33
7,CTACTAGCATGGACCGGTTTTCCCGGTAATCCGTATTTGAC (site CTACTAGCTGT),2.64
8,CCCATATCATGGACCGGTTTTCCCGGTAATCCGTATTTGTC (site CCCTTATCTGA),0.395
9,CGTGAACCATGGACCGGTTTTCCCGGTAATCCGTATTTGAT (site CGCGAACCTAT),0
10,CACGGACCATGGACCGGTTTTCCCGGTAATCCGTATTTGTT (site CACGGCCCTAA),0.403
11,TGCAATCCATGGACCGGTTTTCCCGGTAATCCGTATTTGTT (site CGGAATCCTAA),0.0106
12,TACTCGACATGGACCGGTTTTCCCGGTAATCCGTATTTGCT (site TACTAGACTAG),0.956
13,ATAAGGCCATGGACCGGTTTTCCCGGTAATCCGTATTTGGC (site ATAAGGCCTGT),0.68
14,GCATTGACATGGACCGGTTTTCCCGGTAATCCGTATTTGTT (site GCATTGACTAA),1.4
15,GCGGCACCATGGACCGGTTTTCCCGGTAATCCGTATTTGCA (site GTGGCACCTTG),0
16,TAAAGGGCATGGACCGGTTTTCCCGGTAATCCGTATTTGTG (site TAAAGGGCTCA),1.23
17,CGATCCTCATGGACCGGTTTTCCCGGTAATCCGTATTTGGT (site CGATCATCTAG),0
18,GATGATTCATGGACCGGTTTTCCCGGTAATCCGTATTTGTT (site GAAGATTCTAA),0.433
19,CGTCGTACATGGACCGGTTTTCCCGGTAATCCGTATTTGCT (site CGGCGTACTAG),0.794
20,GTTTGGACATGGACCGGTTTTCCCGGTAATCCGTATTTGAC (site GCTTGGACTGT),1
21,GACAGACCATGGACCGGTTTTCCCGGTAATCCGTATTTGGT (site GACATACCTAC),0
22,AGGAATACATGGACCGGTTTTCCCGGTAATCCGTATTTGCT (site AGGAATACTAG),2.18
23,GATGATTCATGGACCGGTTTTCCCGGTAATCCGTATTTGTT (site GACGATTCTAA),0
24,AATGTGACATGGACCGGTTTTCCCGGTAATCCGTATTTGCT (site AATGTCACTAG),0.731
